The record followed here is ChEMBL document CHEMBL1122753, “Interaction of N4-hydroxy-2'-deoxycytidylic acid with thymidylate synthetase” (J Med Chem, 1984).

Activity calls are given as the source filed them. The rule behind the calls is not given here.

Test [1] has as its target T1, Thymidylate synthase (Homo sapiens, UniProt P04818). Kind of test: The apparent association constant (Ki) with dTMP synthetase enzyme from chick embryo in the absence of CH2-H4 folate was evaluated; Active. Also on record: species or system Gallus gallus. The following applies: target entry is the homologue from another species.
Target sequence in this assay (P04818 whole entry): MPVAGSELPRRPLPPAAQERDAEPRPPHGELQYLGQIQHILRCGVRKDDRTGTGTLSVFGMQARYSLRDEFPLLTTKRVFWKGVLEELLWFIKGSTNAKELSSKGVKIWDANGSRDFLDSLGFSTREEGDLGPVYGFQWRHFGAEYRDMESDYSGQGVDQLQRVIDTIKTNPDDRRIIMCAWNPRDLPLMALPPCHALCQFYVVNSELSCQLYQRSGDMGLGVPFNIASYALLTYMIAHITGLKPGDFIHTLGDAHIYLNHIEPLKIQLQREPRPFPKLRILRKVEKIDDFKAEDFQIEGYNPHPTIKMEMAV
Test [2] concerns the target T2, Thymidylate synthase (Lactobacillus casei, UniProt P00469).
T2 sequence (P00469 whole entry): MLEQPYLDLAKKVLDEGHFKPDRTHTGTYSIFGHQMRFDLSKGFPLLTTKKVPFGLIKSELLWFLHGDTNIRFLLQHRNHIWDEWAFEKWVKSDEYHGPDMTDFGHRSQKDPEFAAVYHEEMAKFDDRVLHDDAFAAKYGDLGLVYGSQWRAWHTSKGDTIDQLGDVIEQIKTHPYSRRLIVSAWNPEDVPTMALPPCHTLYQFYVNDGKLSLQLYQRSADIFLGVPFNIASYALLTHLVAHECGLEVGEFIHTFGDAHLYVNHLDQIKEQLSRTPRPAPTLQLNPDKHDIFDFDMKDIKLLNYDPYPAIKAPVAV
Briefly: The apparent association constant (Ki) with dTMP synthetase enzyme from chick embryo in the absence of CH2-H4 folate was evaluated. Also on record: species or system Lacticaseibacillus casei.

For test [3], the target named is T1, Thymidylate synthase. Briefly: Compound was evaluated for time-dependent loss of activity with use of 15 nM of dTMP synthetase enzyme from chick embryo in the presence of […] of CH2-H4 folate at about 20 seconds. The class given is functional. The following applies: Gallus gallus; target entry is the homologue from another species.
Target sequence in this assay (P04818 2-313 limits assumed): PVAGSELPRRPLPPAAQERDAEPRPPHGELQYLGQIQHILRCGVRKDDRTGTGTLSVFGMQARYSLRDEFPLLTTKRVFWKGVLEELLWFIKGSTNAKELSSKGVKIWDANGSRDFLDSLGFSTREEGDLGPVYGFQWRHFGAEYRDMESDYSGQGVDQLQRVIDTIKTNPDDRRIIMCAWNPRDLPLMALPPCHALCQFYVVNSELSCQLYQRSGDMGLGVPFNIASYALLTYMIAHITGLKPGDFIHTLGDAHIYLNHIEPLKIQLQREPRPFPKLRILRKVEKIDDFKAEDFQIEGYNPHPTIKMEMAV
Test [4] deals with T1, Thymidylate synthase. Briefly: Compound (4.5 uM) was evaluated for the percent binding to the excess dTMP synthetase (3.9 uM and 7.8 uM sites) enzyme from chick embryo, […] of CH2-H4 folate. This complex was incubated 25 degrees Celsius for 2 hours. To be noted: Gallus gallus; target entry is the homologue from another species.
Target sequence in this assay (P04818 2-313 limits assumed): as above
In test [5] the target is T1, Thymidylate synthase. Kind of test: Compound was evaluated for the dissociation of the radiolabeled N4-HOdCMP by competitive binding to the excess dTMP synthetase; Active. The following applies: Gallus gallus.
Target sequence in this assay (P04818 2-313 limits assumed): as above
For test [6], the target named is T1, Thymidylate synthase. Briefly: The apparent association constant (Ki) with dTMP synthetase enzyme from chick embryo in the absence of CH2-H4 folate was evaluated using conventional spectrophotometric assay; Active. Further details: species or system Gallus gallus.
Target sequence in this assay (P04818 whole entry): as the sequence (P04818 whole entry) above

With `Cc1cn([C@H]2C[C@H](O)[C@@H](COP(=O)(O)O)O2)c(=O)[nH]c1=O` [THYMIDINE MONOPHOSPHATE], the Ki result in test [1] is on record as “Active”.
As for `O=c1nc(NO)ccn1[C@H]1C[C@H](O)[C@@H](COP(=O)(O)O)O1`, in test [2], the Ki turned out to be 8 µM. Besides, the Loss of activity in test [3] was 50%. Also, the Binding in test [4] came to 90%. Besides, the Dissociation entry in test [5] was “Active”.
For the molecule `O=c1ccn([C@H]2C[C@H](O)[C@@H](COP(=O)(O)O)O2)c(=O)[nH]1` [DEOXYURIDINE MONOPHOSPHATE], in test [6], the Ki entry is “Active”.
